Laboratory results from US9968536B2, “Composition comprising isosorbide monoesters and isosorbide diesters” (Clariant International Ltd., priority 2011, dated 2018).

Assay: Determination of the thickener performance in mixture A
Format: physicochemical
Conditions: for Viscosity: 1% by weight added to mixture A (15% by weight in water, sodium laureth-2 sulfate:cocobetain 8:2), mixture A alone 135; for thickener performance (in words): 1% by weight in mixture A, summary of Table 1
Source text: Using Genapol® LRO (sodium laureth-2 sulfate, 27% by weight in water) and Genagen® KB (cocobetain, 30% by weight in water) and additionally water, a 15% by weight mixture in water comprising the two surfactants in a weight ratio of 8:2 (hereinbelow referred to as “mixture A”) is obtained.

Row | Compound | Viscosity | thickener performance (in words)
1 | O[C@@H]1CO[C@H]2[C@@H]1OC[C@@H]2O [isosorbide] | 160 mPa · s | not worth mentioning
2 | isosorbide dicaprylate | 2390 mPa · s | significant thickening
